Non-standard residues stand in square brackets, D forms with d. Residues, ends and D or L forms follow the SMILES beside them. *: point of attachment. Octanoyl = CCCCCCCC(=O)*
Tests used:
[1] = system: E. coli CFT073 ATCC 700928 and/or E. coli Nissle 1917; assay: Cell-based assay with ClbP with LCMS, ClbP positive strain; conditions: for % Remaining in ClbP Positve Relative to Media-Only: ClbP-encoding E. coli, 10 μM compound, 37° C., 20 h; for Difference between the ClbP Positive and ClbP Negative release profiles: conclusion from Table 4
Protocol: (§1) This example is representative of the methods described in Example 97. ClbP was tested for its ability to activate compounds. […] Each of these three strains was struck out onto an appropriate solid media such as LB agar or BHI agar. The bacteria were then grown aerobically overnight at 37° C.
(§2) A single colony was isolated from the plate and inoculated into 10 mL LB. The liquid cultures were grown overnight aerobically at 37° C. with rocking on a nutator.
(§3) The saturated E. coli cultures were transferred into a biosafety cabinet. 5 μL of each culture was inoculated into fresh LB broth (200 μL total, 1:40 (v/v) dilution of the overnight culture), and the tested compound was added to a final concentration of 10 μM. To establish the native stability of the compound in media alone, the compound was also added to uninoculated media at a final concentration of 10 μM. Each compound was tested in duplicate with each strain or the media-alone incubation. The plate was sealed and incubated aerobically on a nutator at 37° C. for 20 h.
(§4) After 20 h, the reactions were stopped by addition of 200 μL acetonitrile. The contents of each well were mixed, and then the plate was centrifuged (4,000 rpm, 10 min). The plate was diluted serially to a final dilution of 1:100 first with Acetonitrile (10× dilution) and then with (4:1) Mobile Phase A-20 mM ammonium formate+water:Mobile Phase B-Isopropanol:Methanol:Water (4:4:2)+20 mM ammonium formate (10× dilution).
(§5) The amount of each remaining parent compound in each incubation was quantified by LC-MS analysis, with multiple-reaction monitoring targeting transitions specific to each parent compound.
(§6) The amount of compound present in the media-alone condition was normalized to 100%. The amount of parent compound present in the reaction with the ClbP-encoding E. coli (E. coli CFT073 ATCC 700928 and/or E. coli Nissle 1917) was compared to the amount present in the media-alone and expressed as a percent. Likewise, the amount of parent compound present in the reaction with the negative control E. coli BL21(DE3) was compared to the amount present in the media-alone and expressed as a percent.
(§7) In an ideal case, the amount of residual starting material in the reaction(s) with ClbP-encoding E. coli was <25% of the amount in the E. coli BL21(DE3) and media-alone conditions. In an acceptable case, the amount of residual starting material in the reaction(s) with ClbP-encoding E. coli was 25-75% of the amount in the E. coli BL21(DE3) and media-alone conditions. In a non-preferred case, the amount of residual starting material in the reaction(s) with ClbP-encoding E. coli was >75% of the amount in the E. coli BL21(DE3) and media-alone conditions.

E. coli BL21(DE3) = assay: Cell-based assay with ClbP with LCMS, ClbP negative strain; conditions: 10 μM compound, 37° C., 20 h
Protocol: as §1, §2, §3, §4, §5, §6, §7

[2] = In vitro Colonic Material Stability Assay; type: in vitro ADME; conditions: colonic material slurry, anaerobic, 1 or 10 μM, 24 h
Protocol: Assay 3 In vitro Colonic Material Stability Assay. This assay was used to assess the stability of an acylated active agent in a large intestine. All experiments were performed in an anaerobic chamber containing 90% nitrogen, 5% hydrogen and 5% carbon dioxide. Colonic material was resuspended as a slurry (15% w/v final concentration) in pre-reduced, anaerobically sterilized dilution blanks (Anaerobe Systems AS-908). The colonic material was then inoculated into 96 well plates containing YCFAC media (Anaerobe Systems AS-680) or other suitable media (6.7 μL slurry into 1 mL total media). Compounds or groups of compounds were added to each individual well to reach a final analyte concentration of 1 or 10 μM, and the material was mixed by pipetting. Sample was removed after set timepoints (0, 120, 240, 480, 1440, 2880 minutes after initiation of the assay), quenched with acetonitrile containing internal standard, and analyzed by LC/MS.

For `COC(=O)[C@H](C)NC(=O)[C@@H](CC(N)=O)NC(=O)c1cn(C2CC2)c2cc(N3CCNCC3)c(F)cc2c1=O` [Example 19, Methyl (1-cyclopropyl-6-fluoro-4-oxo-7-(piperazin-1-yl)-1,4-dihydroquinoline-3-carbonyl)-D-asparaginyl-L-alaninate], the “% Remaining in ClbP Positve Relative to Media-Only” value [1] was “+ (between 25-75% compound remaining in the 20 μM WT ClbP reaction relative to the no-enzyme control)”, the “% Remaining in ClbP Negative Relative to Media-Only” value (E. coli BL21(DE3)) was “− (>75% compound remaining in the 20 μM WT ClbP reaction relative to the no-enzyme control)” and the “Assay 3 (% Remaining at 24 h)” value [2] was “A (<25% of the tested compound remaining)”.
In the case of `CCCCCCCCCCCCCC(=O)N[C@H](CC(N)=O)C(=O)N[C@@H](C)CNC(=O)OC` [Example 23, Methyl ((S)-2-((R)-4-amino-4-oxo-2-tetradecanamidobutanamido)propyl)carbamate], the “% Remaining in ClbP Positve Relative to Media-Only” value [1] is reported as “+ (between 25-75% compound remaining in the 20 μM WT ClbP reaction relative to the no-enzyme control)” and the “% Remaining in ClbP Negative Relative to Media-Only” value (E. coli BL21(DE3)) is reported as “− (>75% compound remaining in the 20 μM WT ClbP reaction relative to the no-enzyme control)”.
In the case of `CCCCCCCCCCCCCC(=O)N[C@H](CC(N)=O)C(=O)N[C@@H](C)CCC(=O)Oc1ccc2nc3c(c(CC)c2c1)Cn1c-3cc2c(c1=O)COC(=O)[C@]2(O)CC` [Example 24, (S)-4,11-diethyl-4-hydroxy-3,14-dioxo-3,4,12,14-tetrahydro-1H-pyrano[3′,4′:6,7]indolizino[1,2-b]quinolin-9-yl (S)-4-((R)-4-amino-4-oxo-2-tetradecanamidobutanamido)pentanoate], the “% Remaining in ClbP Positve Relative to Media-Only” value [1] is reported as “+ (between 25-75% compound remaining in the 20 μM WT ClbP reaction relative to the no-enzyme control)” and the “% Remaining in ClbP Negative Relative to Media-Only” value (E. coli BL21(DE3)) is reported as “− (>75% compound remaining in the 20 μM WT ClbP reaction relative to the no-enzyme control)”.
For `CCCCCCCCCCCCCC(=O)N[C@H](CC(N)=O)C(=O)NCCN(C)C(=O)OC` [Example 30, Methyl (R)-(2-(4-amino-4-oxo-2-tetradecanamidobutanamido)ethyl)(methyl)carbamate], the “% Remaining in ClbP Positve Relative to Media-Only” value [1] was “+ (between 25-75% compound remaining in the 20 μM WT ClbP reaction relative to the no-enzyme control)” and the “% Remaining in ClbP Negative Relative to Media-Only” value (E. coli BL21(DE3)) was “− (>75% compound remaining in the 20 μM WT ClbP reaction relative to the no-enzyme control)”.
In the case of `CCCCCCCCCCCCCC(=O)N[C@H](CC(N)=O)C(=O)NCCN(C)C(=O)Oc1ccc(Br)cc1` [Example 31, 4-bromophenyl (R)-(2-(4-amino-4-oxo-2-tetradecanamidobutanamido)ethyl)(methyl)carbamate], the “% Remaining in ClbP Positve Relative to Media-Only” value [1] is reported as “− (>75% compound remaining in the 20 μM WT ClbP reaction relative to the no-enzyme control)” and the “% Remaining in ClbP Negative Relative to Media-Only” value (E. coli BL21(DE3)) is reported as “− (>75% compound remaining in the 20 μM WT ClbP reaction relative to the no-enzyme control)”.
For `CCCCCCCC(=O)N[C@H](CC(N)=O)C(=O)NCCC(C)(C)C(=O)Oc1ccc2nc3c(c(CC)c2c1)Cn1c-3cc2c(c1=O)COC(=O)[C@]2(O)CC` [Example 40, (S)-4,11-diethyl-4-hydroxy-3,14-dioxo-3,4,12,14-tetrahydro-1H-pyrano[3′,4′:6,7]indolizino[1,2-b]quinolin-9-yl 4-((R)-4-amino-2-octanamido-4-oxobutanamido)-2,2-dimethylbutanoate], the “% Remaining in ClbP Positve Relative to Media-Only” value [1] was “+ (between 25-75% compound remaining in the 20 μM WT ClbP reaction relative to the no-enzyme control)” and the “% Remaining in ClbP Negative Relative to Media-Only” value (E. coli BL21(DE3)) was “− (>75% compound remaining in the 20 μM WT ClbP reaction relative to the no-enzyme control)”.
In the case of `CCCCCCCC(=O)N[C@H](CC(N)=O)C(=O)N[C@@H](C)CCC(=O)OC` [Example 42, Methyl (S)-4-((R)-4-amino-2-octanamido-4-oxobutanamido)pentanoate], the “% Remaining in ClbP Positve Relative to Media-Only” value [1] is reported as “− (>75% compound remaining in the 20 μM WT ClbP reaction relative to the no-enzyme control)”, the “% Remaining in ClbP Negative Relative to Media-Only” value (E. coli BL21(DE3)) is reported as “− (>75% compound remaining in the 20 μM WT ClbP reaction relative to the no-enzyme control)” and the “Assay 3 (% Remaining at 24 h)” value [2] is reported as “C (>75% of the tested compound remaining)”.
With `CCCCCCCC(=O)N[C@H](CC(N)=O)C(=O)Nc1ccc(COC)cc1` [Example 44, (R)—N1-(4-(methoxymethyl)phenyl)-2-octanamidosuccinamide] the “% Remaining in ClbP Positve Relative to Media-Only” value [1] was “− (>75% compound remaining in the 20 μM WT ClbP reaction relative to the no-enzyme control)” and the “% Remaining in ClbP Negative Relative to Media-Only” value (E. coli BL21(DE3)) was “− (>75% compound remaining in the 20 μM WT ClbP reaction relative to the no-enzyme control)”.
With `CCCCCCCC(=O)N[C@H](CC(N)=O)C(=O)NCCNC(=O)OC` [Example 46, Methyl (R)-(2-(4-amino-2-octanamido-4-oxobutanamido)ethyl)carbamate] the “% Remaining in ClbP Positve Relative to Media-Only” value [1] was “++ (<25% compound remaining in the 20 μM WT ClbP reaction relative to the control)”, the “Difference between the ClbP Positive and ClbP Negative release profiles” value [1] was “particularly favorable difference” and the “% Remaining in ClbP Negative Relative to Media-Only” value (E. coli BL21(DE3)) was “− (>75% compound remaining in the 20 μM WT ClbP reaction relative to the no-enzyme control)”.
For `CCCCCCCC(=O)N[C@H](CC(N)=O)C(=O)N[C@@H](C)CNC(=O)Oc1ccc(Br)cc1` [Example 48, 4-bromophenyl ((S)-2-((R)-4-amino-2-octanamido-4-oxobutanamido)propyl)carbamate], the “% Remaining in ClbP Positve Relative to Media-Only” value [1] was “+ (between 25-75% compound remaining in the 20 μM WT ClbP reaction relative to the no-enzyme control)” and the “% Remaining in ClbP Negative Relative to Media-Only” value (E. coli BL21(DE3)) was “+ (between 25-75% compound remaining in the 20 μM WT ClbP reaction relative to the no-enzyme control)”.
In the case of `CCCCCCNC(=O)N[C@H](CC(N)=O)C(=O)N[C@@H](C)C(=O)OC` [Example 53, Methyl (hexylcarbamoyl)-D-asparaginyl-L-alaninate], the “% Remaining in ClbP Positve Relative to Media-Only” value [1] is reported as “++ (<25% compound remaining in the 20 μM WT ClbP reaction relative to the control)”, the “Difference between the ClbP Positive and ClbP Negative release profiles” value [1] is reported as “particularly favorable difference” and the “% Remaining in ClbP Negative Relative to Media-Only” value (E. coli BL21(DE3)) is reported as “− (>75% compound remaining in the 20 μM WT ClbP reaction relative to the no-enzyme control)”.
For `CCCCCCCC(=O)N[C@H](Cc1c[nH]cn1)C(=O)N[C@@H](C)C(=O)OC` [Example 54, Methyl octanoyl-D-histidyl-L-alaninate] (Octanoyl-[dH]-Ala-OMe), the “% Remaining in ClbP Positve Relative to Media-Only” value [1] was “+ (between 25-75% compound remaining in the 20 μM WT ClbP reaction relative to the no-enzyme control)” and the “% Remaining in ClbP Negative Relative to Media-Only” value (E. coli BL21(DE3)) was “+ (between 25-75% compound remaining in the 20 μM WT ClbP reaction relative to the no-enzyme control)”.
In the case of `CCCC(=O)N[C@H](CC(N)=O)C(=O)N[C@@H](C)CCC(=O)Oc1ccc2nc3c(c(CC)c2c1)Cn1c-3cc2c(c1=O)COC(=O)[C@]2(O)CC` [Example 58, (S)-4,11-diethyl-4-hydroxy-3,14-dioxo-3,4,12,14-tetrahydro-1H-pyrano[3′,4′:6,7]indolizino[1,2-b]quinolin-9-yl (S)-4-((R)-4-amino-2-butyramido-4-oxobutanamido)pentanoate], the “% Remaining in ClbP Positve Relative to Media-Only” value [1] is reported as “++ (<25% compound remaining in the 20 μM WT ClbP reaction relative to the control)” and the “% Remaining in ClbP Negative Relative to Media-Only” value (E. coli BL21(DE3)) is reported as “+ (between 25-75% compound remaining in the 20 μM WT ClbP reaction relative to the no-enzyme control)”.
In the case of `CCCCCCCC(=O)N[C@H](CC(N)=O)C(=O)NCCC(C)(C)C(=O)Oc1ccc2c(C)cc(=O)oc2c1` [Example 72A, 4-methyl-2-oxo-2H-chromen-7-yl (R)-4-(4-amino-2-octanamido-4-oxobutanamido)-2,2-dimethylbutanoate], the “% Remaining in ClbP Positve Relative to Media-Only” value [1] is reported as “+ (between 25-75% compound remaining in the 20 μM WT ClbP reaction relative to the no-enzyme control)” and the “% Remaining in ClbP Negative Relative to Media-Only” value (E. coli BL21(DE3)) is reported as “+ (between 25-75% compound remaining in the 20 μM WT ClbP reaction relative to the no-enzyme control)”.

Source: patent US11998610B2, “Conjugates and methods of using the same” (Flagship Pioneering Innovations V, Inc., priority 2018, dated 2024)
